Test results taken from ChEMBL document CHEMBL2407072 (Eur J Med Chem, 2013).
pIC50: −log10 of the molar value.

Experiments:
[1] = molecular target: Carbonic anhydrase 9 (Homo sapiens, UniProt Q16790); assay: Inhibition of human recombinant CA9 using 4-nitrophenylacetate as substrate preincubated for 15 mins by stopped-flow CO2 hydration assay
[2] = tested on: MCF7; conditions: Homo sapiens, MCF7, 48 h
[3] = tested on: B16-F10; assay: cells; conditions: Mus musculus, B16-F10, 48 h
Description: Cytotoxicity against mouse B16F10 cells after 48 hrs by CCK8 assay

[4] = Cytotoxicity against human macrophages assessed as microscopically detectable alteration of normal cell morphology after 48 hrs […]; assay type: cell-based; conditions: macrophage
[5] = tested on: A549; assay: Induction of apoptosis in human A549 cells assessed as early apoptotic cells at 160 ug/ml after 48 hrs using propidium iodide staining by FACS assay; assay type: functional
[6] = tested on: A549; assay: Induction of apoptosis in human A549 cells assessed as late apoptotic cells at 160 ug/ml after 48 hrs using propidium iodide staining by FACS assay; assay type: functional
[7] = tested on: A549; assay: Induction of apoptosis in human A549 cells assessed as viable cells at 160 ug/ml after 48 hrs using propidium iodide staining by FACS assay; assay type: functional; conditions: A549, 48 h, read-out: Activity
[8] = tested on: A549; assay: Induction of apoptosis in human A549 cells assessed as necrotic cells at 160 ug/ml after 48 hrs using propidium iodide staining by FACS assay; assay type: functional
[9] = tested on: A549; assay: Induction of apoptosis in human A549 cells assessed as early apoptotic cells at 40 ug/ml after 48 hrs using propidium iodide staining by FACS assay; assay type: functional
[10] = tested on: A549; assay: Induction of apoptosis in human A549 cells assessed as late apoptotic cells at 40 ug/ml after 48 hrs using propidium iodide staining by FACS assay; assay type: functional
[11] = tested on: A549; assay: Induction of apoptosis in human A549 cells assessed as viable cells at 40 ug/ml after 48 hrs using propidium iodide staining by FACS assay; assay type: functional; conditions: A549, 48 h, read-out: Activity
[12] = tested on: A549; assay: Induction of apoptosis in human A549 cells assessed as necrotic cells at 40 ug/ml after 48 hrs using propidium iodide staining by FACS assay; assay type: functional
[13] = tested on: A549; assay: Induction of apoptosis in human A549 cells assessed as early apoptotic cells at 10 ug/ml after 48 hrs using propidium iodide staining by FACS assay; assay type: functional
[14] = tested on: A549; assay: Induction of apoptosis in human A549 cells assessed as late apoptotic cells at 10 ug/ml after 48 hrs using propidium iodide staining by FACS assay; assay type: functional
[15] = tested on: A549; assay: Induction of apoptosis in human A549 cells assessed as viable cells at 10 ug/ml after 48 hrs using propidium iodide staining by FACS assay; assay type: functional; conditions: A549, 48 h, read-out: Activity
[16] = tested on: A549; assay: Induction of apoptosis in human A549 cells assessed as necrotic cells at 10 ug/ml after 48 hrs using propidium iodide staining by FACS assay; assay type: functional
[17] = tested on: A549; assay: Induction of apoptosis in human A549 cells assessed as early apoptotic cells at 2.5 ug/ml after 48 hrs using propidium iodide staining by FACS assay; assay type: functional
[18] = tested on: A549; assay: Induction of apoptosis in human A549 cells assessed as late apoptotic cells at 2.5 ug/ml after 48 hrs using propidium iodide staining by FACS assay; assay type: functional
[19] = tested on: A549; assay: Induction of apoptosis in human A549 cells assessed as viable cells at 2.5 ug/ml after 48 hrs using propidium iodide staining by FACS assay; assay type: functional; conditions: A549, 48 h, read-out: Activity
[20] = tested on: A549; assay: Induction of apoptosis in human A549 cells assessed as necrotic cells at 2.5 ug/ml after 48 hrs using propidium iodide staining by FACS assay; assay type: functional

Row | pIC50 [1] | pIC50 [2] | pIC50 [3] | SMILES | MCC [4] | other results
1 | 7.30 | 7.17 | 6.62 | Cc1ccc2oc(=O)c(/C=N/c3ccc(S(=O)(=O)NC(=N)N)cc3)c(Cl)c2c1 |  | 
2 | 7.07 | 6.57 | 6.44 | Cc1ccc2oc(=O)c(/C=N/c3ccc(S(N)(=O)=O)cc3)c(Cl)c2c1 | 1.2 µmol | 
3 | 7.17 | 7.60 | 6.52 | Cc1ccc2oc(=O)c(/C=N/c3ccc(S(=O)(=O)Nc4nc(C)cc(C)n4)cc3)c(Cl)c2c1 |  | 
4 | 7.32 | 7.21 | 6.57 | Cc1ccc2oc(=O)c(/C=N/c3ccc(S(=O)(=O)Nc4nccc(C)n4)cc3)c(Cl)c2c1 | 0.56 µmol | 
5 | 7.28 | 7.80 | 6.60 | Cc1ccc2oc(=O)c(/C=N/c3ccc(S(=O)(=O)Nc4cc(C)on4)cc3)c(Cl)c2c1 |  | 
6 | 7.62 | 7.49 | 6.72 | Cc1ccnc(NS(=O)(=O)c2ccc(/N=C/c3c(Cl)c4cc(C(C)(C)C)cc(C(C)(C)C)c4oc3=O)cc2)n1 | 0.36 µmol | 
7 | 7.08 | 7.51 | 6.64 | Cc1ccnc(NS(=O)(=O)c2ccc(/N=C/c3c(Cl)c4ccccc4oc3=O)cc2)n1 |  | 
8 | 7.04 | 6.92 | 6.52 | NS(=O)(=O)c1ccc(/N=C/c2c(Cl)c3ccccc3oc2=O)cc1 | 0.58 µmol | 
9 | 7.47 | 7.80 | 6.62 | CC(C)(C)c1cc(C(C)(C)C)c2oc(=O)c(/C=N/c3ccc(S(N)(=O)=O)cc3)c(Cl)c2c1 | 0.58 µmol | 
10 |  |  | 7.14 | COc1cccc2c1C(=O)c1c(O)c3c(c(O)c1C2=O)C[C@@](O)(C(=O)CO)C[C@@H]3O[C@H]1C[C@H](N)[C@H](O)[C@H](C)O1 [DOXORUBICIN] |  | 
11 | 7.05 | 8.06 | 6.66 | Cc1cc(C)nc(NS(=O)(=O)c2ccc(/N=C/c3c(Cl)c4cc(C(C)(C)C)cc(C(C)(C)C)c4oc3=O)cc2)n1 | 0.73 µmol | 
12 | 6.91 | 7.70 | 6.77 | Cc1cc(C)nc(NS(=O)(=O)c2ccc(/N=C/c3c(Cl)c4ccccc4oc3=O)cc2)n1 |  | Activity [5]: 9.24%; Activity [6]: 9.62%; viability at 160 µg/mL [7]: 72.2%; Activity [8]: 8.99%; Activity [9]: 6.54%; Activity [10]: 6.28%; viability at 40 µg/mL [11]: 85.1%; Activity [12]: 2.04%; Activity [13]: 5.09%; Activity [14]: 12.1%; viability at 10 µg/mL [15]: 81.2%; Activity [16]: 1.58%; Activity [17]: 6.8%; Activity [18]: 19.6%; viability at 2.5 µg/mL [19]: 69.4%; Activity [20]: 4.14%
13 | 7.06 | 7.48 | 6.55 | Cc1ccc2oc(=O)c(/C=N/c3ccc(S(=O)(=O)Nc4nccs4)cc3)c(Cl)c2c1 |  | 
14 | 7.13 | 7.74 | 6.60 | CC(C)(C)c1cc(C(C)(C)C)c2oc(=O)c(/C=N/c3ccc(S(=O)(=O)NC(=N)N)cc3)c(Cl)c2c1 |  | 
15 | 6.73 | 7.24 | 6.74 | N=C(N)NS(=O)(=O)c1ccc(/N=C/c2c(Cl)c3ccccc3oc2=O)cc1 | 0.62 µmol | 
16 | 6.86 | 6.80 | 6.52 | O=c1oc2ccccc2c(Cl)c1/C=N/c1ccc(S(=O)(=O)Nc2nccs2)cc1 |  | 
17 | 6.85 | 7.92 | 6.57 | Cc1cc(NS(=O)(=O)c2ccc(/N=C/c3c(Cl)c4ccccc4oc3=O)cc2)no1 | 0.42 µmol | 
18 | 7.29 | 7.92 | 6.80 | CC(C)(C)c1cc(C(C)(C)C)c2oc(=O)c(/C=N/c3ccc(S(=O)(=O)Nc4nccs4)cc3)c(Cl)c2c1 |  | 
19 | 7.37 | 7.19 | 6.62 | Cc1cc(NS(=O)(=O)c2ccc(/N=C/c3c(Cl)c4cc(C(C)(C)C)cc(C(C)(C)C)c4oc3=O)cc2)no1 |  | 
